{"source": "paper PMC10726920", "about": "(Cancer Medicine, 2023)", "system": "patients with acute lymphoblastic leukemia", "experiment": "Adverse events (CTCAE version 4.0), Phase II study NCI-9775 of sapanisertib monotherapy", "type": "in vivo", "conditions": "treatment-related; 15 evaluable", "procedure": "Responders could continue on the same dose or proceed to allogeneic hematopoietic cell transplant if available. Non‐responders (but tolerating drug) could increase their dose to 4 mg orally for 21 days every 28 days (dose level + 1) starting in Cycle 3 and 4 mg orally continuously (dose level + 2) starting in Cycle 5 (if they tolerated dose level + 1). Dose reduction was recommended for toxicity (dose level − 1: 2 mg daily for 21 days every 28 days; dose level − 2: 2 mg daily for 5 days/week for 3 weeks every 4 weeks). […] Intrathecal chemotherapy was allowed per institutional standard policies. In‐home blood glucose monitoring was performed daily to monitor blood sugar (a glucometer was given to every patient on the study). Discontinuation of therapy was recommended for disease progression, severe toxicity, lack of response, proceeding to hematopoietic cell transplant, or prolonged delay of the subsequent cycle (>1 month delay for therapy‐related toxicity or >2 months delay for unrelated toxicity).\nThe primary endpoint was the proportion of successes, which was estimated by the number of successes divided by the total number of evaluable patients. Secondary endpoints of duration of response (CR or CRi) and overall survival (OS) were evaluated using Kaplan–Meier techniques; the frequency of proceeding to allogeneic stem cell transplant after achieving response and adverse events (AEs), as evaluated using reported the NCI Common Terminology Criteria for Adverse Events (CTCAE) version 4.0, were presented using descriptive statistics."}
{"compound": "CC(C)n1nc(-c2ccc3oc(N)nc3c2)c2c(N)ncnc21", "note": "[sapanisertib]", "values": [{"measurement": "Aspartate aminotransferase increased grade 2", "result": "0 (0) N (%)"}, {"measurement": "Aspartate aminotransferase increased grade 3", "result": "0 (0) N (%)"}, {"measurement": "Aspartate aminotransferase increased grade 4", "result": "0 (0) N (%)"}, {"measurement": "Aspartate aminotransferase increased grade 5", "result": "0 (0) N (%)"}, {"measurement": "Bloating grade 1", "result": "1 (7) N (%)"}, {"measurement": "Bloating grade 2", "result": "0 (0) N (%)"}, {"measurement": "Bloating grade 3", "result": "0 (0) N (%)"}, {"measurement": "Bloating grade 4", "result": "0 (0) N (%)"}, {"measurement": "Bloating grade 5", "result": "0 (0) N (%)"}, {"measurement": "Blood bilirubin increased grade 1", "result": "1 (7) N (%)"}, {"measurement": "Blood bilirubin increased grade 2", "result": "0 (0) N (%)"}, {"measurement": "Blood bilirubin increased grade 3", "result": "1 (7) N (%)"}, {"measurement": "Blood bilirubin increased grade 4", "result": "0 (0) N (%)"}, {"measurement": "Blood bilirubin increased grade 5", "result": "0 (0) N (%)"}, {"measurement": "Confusion grade 1", "result": "0 (0) N (%)"}, {"measurement": "Confusion grade 2", "result": "0 (0) N (%)"}, {"measurement": "Confusion grade 3", "result": "1 (7) N (%)"}, {"measurement": "Confusion grade 4", "result": "0 (0) N (%)"}, {"measurement": "Confusion grade 5", "result": "0 (0) N (%)"}, {"measurement": "Constipation grade 1", "result": "1 (7) N (%)"}, {"measurement": "Constipation grade 2", "result": "0 (0) N (%)"}, {"measurement": "Constipation grade 3", "result": "0 (0) N (%)"}, {"measurement": "Constipation grade 4", "result": "0 (0) N (%)"}, {"measurement": "Constipation grade 5", "result": "0 (0) N (%)"}, {"measurement": "Cough grade 1", "result": "1 (7) N (%)"}, {"measurement": "Cough grade 2", "result": "0 (0) N (%)"}, {"measurement": "Cough grade 3", "result": "0 (0) N (%)"}, {"measurement": "Cough grade 4", "result": "0 (0) N (%)"}, {"measurement": "Cough grade 5", "result": "0 (0) N (%)"}, {"measurement": "Delirium grade 1", "result": "0 (0) N (%)"}, {"measurement": "Delirium grade 2", "result": "0 (0) N (%)"}, {"measurement": "Delirium grade 3", "result": "1 (7) N (%)"}, {"measurement": "Delirium grade 4", "result": "0 (0) N (%)"}, {"measurement": "Delirium grade 5", "result": "0 (0) N (%)"}, {"measurement": "Diarrhea grade 1", "result": "1 (7) N (%)"}, {"measurement": "Diarrhea grade 2", "result": "0 (0) N (%)"}, {"measurement": "Diarrhea grade 3", "result": "0 (0) N (%)"}, {"measurement": "Diarrhea grade 4", "result": "0 (0) N (%)"}, {"measurement": "Diarrhea grade 5", "result": "0 (0) N (%)"}, {"measurement": "Dysgeusia grade 1", "result": "1 (7) N (%)"}, {"measurement": "Dysgeusia grade 2", "result": "0 (0) N (%)"}, {"measurement": "Dysgeusia grade 3", "result": "0 (0) N (%)"}, {"measurement": "Dysgeusia grade 4", "result": "0 (0) N (%)"}, {"measurement": "Dysgeusia grade 5", "result": "0 (0) N (%)"}, {"measurement": "Edema limbs grade 1", "result": "1 (7) N (%)"}, {"measurement": "Edema limbs grade 2", "result": "0 (0) N (%)"}, {"measurement": "Edema limbs grade 3", "result": "0 (0) N (%)"}, {"measurement": "Edema limbs grade 4", "result": "0 (0) N (%)"}, {"measurement": "Edema limbs grade 5", "result": "0 (0) N (%)"}, {"measurement": "Fall grade 1", "result": "0 (0) N (%)"}, {"measurement": "Fall grade 2", "result": "1 (7) N (%)"}, {"measurement": "Fall grade 3", "result": "0 (0) N (%)"}, {"measurement": "Fall grade 4", "result": "0 (0) N (%)"}, {"measurement": "Fall grade 5", "result": "0 (0) N (%)"}, {"measurement": "Fatigue grade 1", "result": "1 (7) N (%)"}, {"measurement": "Fatigue grade 2", "result": "0 (0) N (%)"}, {"measurement": "Fatigue grade 3", "result": "1 (7) N (%)"}, {"measurement": "Fatigue grade 4", "result": "0 (0) N (%)"}, {"measurement": "Fatigue grade 5", "result": "0 (0) N (%)"}, {"measurement": "Febrile neutropenia grade 1", "result": "0 (0) N (%)"}, {"measurement": "Febrile neutropenia grade 2", "result": "0 (0) N (%)"}, {"measurement": "Febrile neutropenia grade 3", "result": "1 (7) N (%)"}, {"measurement": "Febrile neutropenia grade 4", "result": "0 (0) N (%)"}, {"measurement": "Febrile neutropenia grade 5", "result": "0 (0) N (%)"}, {"measurement": "Fibrinogen decreased grade 1", "result": "0 (0) N (%)"}, {"measurement": "Fibrinogen decreased grade 2", "result": "0 (0) N (%)"}, {"measurement": "Fibrinogen decreased grade 3", "result": "1 (7) N (%)"}, {"measurement": "Fibrinogen decreased grade 4", "result": "0 (0) N (%)"}, {"measurement": "Fibrinogen decreased grade 5", "result": "0 (0) N (%)"}, {"measurement": "Hyperglycemia grade 1", "result": "0 (0) N (%)"}, {"measurement": "Hyperglycemia grade 2", "result": "0 (0) N (%)"}, {"measurement": "Hyperglycemia grade 3", "result": "2 (13) N (%)"}, {"measurement": "Hyperglycemia grade 4", "result": "0 (0) N (%)"}, {"measurement": "Hyperglycemia grade 5", "result": "0 (0) N (%)"}, {"measurement": "Hypertriglyceridemia grade 1", "result": "1 (7) N (%)"}, {"measurement": "Hypertriglyceridemia grade 2", "result": "0 (0) N (%)"}, {"measurement": "Hypertriglyceridemia grade 3", "result": "0 (0) N (%)"}, {"measurement": "Hypertriglyceridemia grade 4", "result": "0 (0) N (%)"}, {"measurement": "Hypertriglyceridemia grade 5", "result": "0 (0) N (%)"}, {"measurement": "Leukocytosis grade 1", "result": "0 (0) N (%)"}, {"measurement": "Leukocytosis grade 2", "result": "0 (0) N (%)"}, {"measurement": "Leukocytosis grade 3", "result": "1 (7) N (%)"}, {"measurement": "Leukocytosis grade 4", "result": "0 (0) N (%)"}, {"measurement": "Leukocytosis grade 5", "result": "0 (0) N (%)"}, {"measurement": "Lymphocyte count decreased grade 1", "result": "0 (0) N (%)"}, {"measurement": "Lymphocyte count decreased grade 2", "result": "0 (0) N (%)"}, {"measurement": "Lymphocyte count decreased grade 3", "result": "2 (13) N (%)"}, {"measurement": "Lymphocyte count decreased grade 4", "result": "0 (0) N (%)"}, {"measurement": "Lymphocyte count decreased grade 5", "result": "0 (0) N (%)"}, {"measurement": "Mucositis oral grade 1", "result": "0 (0) N (%)"}, {"measurement": "Mucositis oral grade 2", "result": "0 (0) N (%)"}, {"measurement": "Mucositis oral grade 3", "result": "3 (20) N (%)"}, {"measurement": "Mucositis oral grade 4", "result": "0 (0) N (%)"}, {"measurement": "Mucositis oral grade 5", "result": "0 (0) N (%)"}, {"measurement": "Neoplasms grade 1", "result": "0 (0) N (%)"}, {"measurement": "Neoplasms grade 2", "result": "0 (0) N (%)"}, {"measurement": "Neoplasms grade 3", "result": "1 (7) N (%)"}, {"measurement": "Neoplasms grade 4", "result": "0 (0) N (%)"}, {"measurement": "Neoplasms grade 5", "result": "0 (0) N (%)"}, {"measurement": "Neutrophil count decreased grade 1", "result": "0 (0) N (%)"}, {"measurement": "Neutrophil count decreased grade 2", "result": "0 (0) N (%)"}, {"measurement": "Neutrophil count decreased grade 3", "result": "0 (0) N (%)"}, {"measurement": "Neutrophil count decreased grade 4", "result": "1 (7) N (%)"}, {"measurement": "Neutrophil count decreased grade 5", "result": "0 (0) N (%)"}, {"measurement": "Oral pain grade 1", "result": "1 (7) N (%)"}, {"measurement": "Oral pain grade 2", "result": "0 (0) N (%)"}, {"measurement": "Oral pain grade 3", "result": "0 (0) N (%)"}, {"measurement": "Oral pain grade 4", "result": "0 (0) N (%)"}, {"measurement": "Oral pain grade 5", "result": "0 (0) N (%)"}, {"measurement": "Paresthesia grade 1", "result": "1 (7) N (%)"}, {"measurement": "Paresthesia grade 2", "result": "0 (0) N (%)"}, {"measurement": "Paresthesia grade 3", "result": "0 (0) N (%)"}, {"measurement": "Paresthesia grade 4", "result": "0 (0) N (%)"}, {"measurement": "Paresthesia grade 5", "result": "0 (0) N (%)"}, {"measurement": "Pharyngolaryngeal pain grade 1", "result": "0 (0) N (%)"}, {"measurement": "Pharyngolaryngeal pain grade 2", "result": "1 (7) N (%)"}, {"measurement": "Pharyngolaryngeal pain grade 3", "result": "0 (0) N (%)"}, {"measurement": "Pharyngolaryngeal pain grade 4", "result": "0 (0) N (%)"}, {"measurement": "Pharyngolaryngeal pain grade 5", "result": "0 (0) N (%)"}, {"measurement": "Platelet count decreased grade 1", "result": "0 (0) N (%)"}, {"measurement": "Platelet count decreased grade 2", "result": "0 (0) N (%)"}, {"measurement": "Platelet count decreased grade 3", "result": "1 (7) N (%)"}, {"measurement": "Platelet count decreased grade 4", "result": "3 (20) N (%)"}, {"measurement": "Platelet count decreased grade 5", "result": "0 (0) N (%)"}, {"measurement": "Pneumonitis grade 1", "result": "0 (0) N (%)"}, {"measurement": "Pneumonitis grade 2", "result": "0 (0) N (%)"}, {"measurement": "Pneumonitis grade 3", "result": "1 (7) N (%)"}, {"measurement": "Pneumonitis grade 4", "result": "0 (0) N (%)"}, {"measurement": "Pneumonitis grade 5", "result": "0 (0) N (%)"}, {"measurement": "Pruritus grade 1", "result": "1 (7) N (%)"}, {"measurement": "Pruritus grade 2", "result": "0 (0) N (%)"}, {"measurement": "Pruritus grade 3", "result": "0 (0) N (%)"}, {"measurement": "Pruritus grade 4", "result": "0 (0) N (%)"}, {"measurement": "Pruritus grade 5", "result": "0 (0) N (%)"}, {"measurement": "Resp, thoracic, mediastinal grade 1", "result": "0 (0) N (%)"}, {"measurement": "Resp, thoracic, mediastinal grade 2", "result": "0 (0) N (%)"}, {"measurement": "Resp, thoracic, mediastinal grade 3", "result": "0 (0) N (%)"}, {"measurement": "Resp, thoracic, mediastinal grade 4", "result": "1 (7) N (%)"}, {"measurement": "Resp, thoracic, mediastinal grade 5", "result": "0 (0) N (%)"}, {"measurement": "Vaginal inflammation grade 1", "result": "0 (0) N (%)"}, {"measurement": "Vaginal inflammation grade 2", "result": "1 (7) N (%)"}, {"measurement": "Vaginal inflammation grade 3", "result": "0 (0) N (%)"}, {"measurement": "Vaginal inflammation grade 4", "result": "0 (0) N (%)"}, {"measurement": "Vaginal inflammation grade 5", "result": "0 (0) N (%)"}, {"measurement": "Vomiting grade 1", "result": "1 (7) N (%)"}, {"measurement": "Vomiting grade 2", "result": "0 (0) N (%)"}, {"measurement": "Vomiting grade 3", "result": "0 (0) N (%)"}, {"measurement": "Vomiting grade 4", "result": "0 (0) N (%)"}, {"measurement": "Vomiting grade 5", "result": "0 (0) N (%)"}, {"measurement": "Wheezing grade 1", "result": "0 (0) N (%)"}, {"measurement": "Wheezing grade 2", "result": "1 (7) N (%)"}, {"measurement": "Wheezing grade 3", "result": "0 (0) N (%)"}, {"measurement": "Wheezing grade 4", "result": "0 (0) N (%)"}, {"measurement": "Wheezing grade 5", "result": "0 (0) N (%)"}, {"measurement": "White blood cell decreased grade 1", "result": "0 (0) N (%)"}, {"measurement": "White blood cell decreased grade 2", "result": "0 (0) N (%)"}, {"measurement": "White blood cell decreased grade 3", "result": "0 (0) N (%)"}, {"measurement": "White blood cell decreased grade 4", "result": "2 (13) N (%)"}, {"measurement": "White blood cell decreased grade 5", "result": "0 (0) N (%)"}]}
